Experimental data from patent US20250304535A1, “KAT6 Inhibitors” (BeiGene Switzerland GmbH, priority 2024, published 2025).

Assays:
[1] = molecular target: Recombinant human KAT6A protein (497-780) (Homo sapiens (Human), UniProt Q92794); assay: KAT6A biochemical TR-FRET assay; details: histone H4 peptide 2000 nM, AcCoA 300 nM, enzyme 5 nM
Description: Enzymatic reactions of KAT6A and KAT6B were performed using Fluorescence Resonance Energy Transfer (TR-FRET) assay, which measures acetylation of a synthetic, biotinylated histone-H4 peptide by the KAT6A and KAT6B enzymes. Recombinant human KAT6A protein (497-780) were expressed in BL21 cell using an E. coli expression system. Recombinant human KAT6B protein (657-1069) was expressed in sf9 cell using a baculovirus expression system. […] Acetyl coenzyme A was purchased from Sigma-Aldrich (#A-2056).
Testing for the inhibition activities of various compounds disclosed herein was carried out at room temperature in assay buffer containing 100 mM Tris/HCl Ph7.8, 15 mM NaCl, 0.01% chicken egg white albumin, 1 mM DTT and 0.01% Tween-20. Compounds in DMSO were dispensed into wells of a black, 384-well plate (Corning 4514) using ECHO555 (Beckman). The final concentration ranges of the test compounds were 0.0625-1,000 nM, 0.625-10,000 nM, or 0.313-5,000 nM. Five μL of KAT6A or KAT6B enzyme solution were added to wells, and the plate was incubated for 1 hour at room temperature (rt). After incubation for 1 hour at rt, 5 μL H4 and AcCoA substrate solutions were added to the wells to initiate reaction, and the plate was incubated. After 2 hours reaction, 5 μL detection reagent were added to the wells, and the plate was incubated for 2 hours. After two hours incubation, detection reagent containing 5 nM Anti-histone H4 antibody (ABCAM #ab177790), 100 μM formic acid (sigma #06473-100ML), 0.1 test/μL streptavidin-XL665 (PerkinElmer #610SAXLG), 0.05 test/μL PAb anti-rabbit IgG-Eu (PerkinElmer μ61PARKLA) was added to the wells. TR-FRET was measured on a microplate reader (PHERAstar FSX, BMG labtech). […] In Table 6, I≤5 nM, 5 nM<II≤50 nM.

[2] = molecular target: Recombinant human KAT6B protein (657-1069) (Homo sapiens (Human), UniProt Q8WYB5); assay: KAT6B biochemical TR-FRET assay; details: histone H4 peptide 1000 nM, AcCoA 100 nM, enzyme 5 nM
Description: Enzymatic reactions of KAT6A and KAT6B were performed using Fluorescence Resonance Energy Transfer (TR-FRET) assay, which measures acetylation of a synthetic, biotinylated histone-H4 peptide by the KAT6A and KAT6B enzymes. Recombinant human KAT6A protein (497-780) were expressed in BL21 cell using an E. coli expression system. Recombinant human KAT6B protein (657-1069) was expressed in sf9 cell using a baculovirus expression system. Histone H4 peptide (SEQ ID NO: 1—[…]-GGK-Biotin), which was used as substrate, was synthesized by GL Biochem, Shanghai, China. Acetyl coenzyme A was purchased from Sigma-Aldrich (#A-2056).
Testing for the inhibition activities of various compounds disclosed herein was carried out at room temperature in assay buffer containing 100 mM Tris/HCl Ph7.8, 15 mM NaCl, 0.01% chicken egg white albumin, 1 mM DTT and 0.01% Tween-20. Compounds in DMSO were dispensed into wells of a black, 384-well plate (Corning 4514) using ECHO555 (Beckman). The final concentration ranges of the test compounds were 0.0625-1,000 nM, 0.625-10,000 nM, or 0.313-5,000 nM. Five μL of KAT6A or KAT6B enzyme solution were added to wells, and the plate was incubated for 1 hour at room temperature (rt). After incubation for 1 hour at rt, 5 μL H4 and AcCoA substrate solutions were added to the wells to initiate reaction, and the plate was incubated. After 2 hours reaction, 5 μL detection reagent were added to the wells, and the plate was incubated for 2 hours. After two hours incubation, detection reagent containing 5 nM Anti-histone H4 antibody (ABCAM #ab177790), 100 μM formic acid (sigma #06473-100ML), 0.1 test/μL streptavidin-XL665 (PerkinElmer #610SAXLG), 0.05 test/μL PAb anti-rabbit IgG-Eu (PerkinElmer μ61PARKLA) was added to the wells. TR-FRET was measured on a microplate reader (PHERAstar FSX, BMG labtech). The IC50s were calculated based on inhibition of enzyme activity in the presence of increasing concentrations of test compounds, and the results are shown in Table 6. In Table 6, I≤5 nM, 5 nM<II≤50 nM.

[3] = system: histone H3K23 acetylation in U-2 OS cells; assay: Histone H3 lysine 23 acetylation assay in U-2 OS cells (high content analysis); format: cell-based; details: Homo sapiens, U2OS, 24 hrs exposure, H3K23ac level
Description: Assay B: Histone H3 lysine 23 Acetylation Assay
Compounds were tested for their capacity to suppress the histone H3K23 acetylation in the following high content analysis assay.
The cell line U-2 OS (ATCC HTB-96) was seeded at a density of 2000 cells per well in black 384 well cell culture/imaging microplates in 45 μl McCoy's 5A medium with […]. After overnight incubation in 37° C., 5% CO2 incubator, cells were then treated with a 9-point dilution series of compounds and a blank control group with medium containing 0.1% DMSO.
Following a 24 hrs exposure to the compounds, the cells were fixed with 4% immunohistochemical fixative for 20 mins at room temperature, washed with DPBS with 2% fetal bovine serum, and permed with Perm Buffer III for 30 min on ice, washed with DPBS with 2% fetal bovine serum. Then the cells were blocked with Odyssey blocking buffer containing 0.1% Tween 20. 20 ul Anti-Histone H3 (acetyl K23) antibody (Abcam, ab177275) in odyssey blocking buffer containing 0.1% Tween20 was added and incubated overnight at 4° C. After incubation, the cells were washed for 3 times and a secondary antibody Anti-rabbit IgG (H+L), F(ab′)2 Fragment (Alexa Fluor® 647 Conjugate) (CST, 4414S) were added into cells for one hour. The cells were washed and 1 ug/ml DAPI (Thermo, 62248) were added for 10 min. Then cells were washed and read on the PerkinElmer Operetta CLS high content analysis system. The nuclei were identified by DAPI and H3K23ac level was calculated from the Alexa Fluor 647 intensity in the nuclei. Inhibition rate of H3K23ac was calculated as the mean intensity of cells per well relative to blank controls on the same plate.

Chain of Recombinant human KAT6A protein (497-780) (Q92794 497-780): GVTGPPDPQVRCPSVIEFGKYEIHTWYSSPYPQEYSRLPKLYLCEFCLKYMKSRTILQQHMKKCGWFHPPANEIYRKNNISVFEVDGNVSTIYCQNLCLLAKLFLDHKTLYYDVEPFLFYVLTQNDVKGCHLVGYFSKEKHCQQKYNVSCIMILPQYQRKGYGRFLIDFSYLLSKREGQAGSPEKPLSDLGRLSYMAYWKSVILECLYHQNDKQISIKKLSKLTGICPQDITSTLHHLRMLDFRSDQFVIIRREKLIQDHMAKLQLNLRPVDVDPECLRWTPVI
Chain of Recombinant human KAT6B protein (657-1069) (Q8WYB5 657-1069): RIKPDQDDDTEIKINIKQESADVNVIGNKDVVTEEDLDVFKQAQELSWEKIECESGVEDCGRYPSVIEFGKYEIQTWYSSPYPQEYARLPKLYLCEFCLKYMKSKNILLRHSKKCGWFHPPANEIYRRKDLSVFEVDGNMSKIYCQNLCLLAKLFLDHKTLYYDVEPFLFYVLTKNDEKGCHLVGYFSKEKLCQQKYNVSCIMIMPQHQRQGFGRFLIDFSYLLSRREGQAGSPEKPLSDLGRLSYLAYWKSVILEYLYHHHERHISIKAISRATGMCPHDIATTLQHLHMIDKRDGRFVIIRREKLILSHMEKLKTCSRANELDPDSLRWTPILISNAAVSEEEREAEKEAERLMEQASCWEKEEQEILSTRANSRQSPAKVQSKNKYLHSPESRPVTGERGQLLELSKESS

| Structure (SMILES) | IC50 [1] [nM] | IC50 [2] [nM] | IC50 [3] [nM] |
| --- | --- | --- | --- |
| COCc1cc(C(=O)NS(=O)(=O)c2cc(C(C)(C)C)ccc2OC)ccc1Cn1cccn1 [Example C12, 4-((1H-pyrazol-1-yl)methyl)-N-((5-(tert-butyl)-2-methoxyphenyl)sulfonyl)-3-(methoxymethyl)benzamide] | 5 to 50 | 5 to 50 | 10 to 100 |
| COc1ccc(C(C)(C)C)cc1S(=O)(=O)NC(=O)c1ccc(Cn2cccn2)c(N(C)C)c1 [Example C13, 4-((1H-pyrazol-1-yl)methyl)-N-((5-(tert-butyl)-2-methoxyphenyl)sulfonyl)-3-(dimethylamino)benzamide] | ≤ 5 | ≤ 5 | ≤ 10 |
| COc1ccc(C(C)(C)C)cc1S(=O)(=O)NC(=O)c1ccc(Cn2cccn2)c(Br)c1 [Example C14, 4-((1H-pyrazol-1-yl)methyl)-3-bromo-N-((5-(tert-butyl)-2-methoxyphenyl)sulfonyl)benzamide] | ≤ 5 | ≤ 5 | ≤ 10 |
| C#Cc1cc(C(=O)NS(=O)(=O)c2cc(C(C)(C)C)ccc2OC)ccc1Cn1cccn1 [Example C15, 4-((1H-pyrazol-1-yl)methyl)-N-((5-(tert-butyl)-2-methoxyphenyl)sulfonyl)-3-ethynylbenzamide] | ≤ 5 | ≤ 5 | ≤ 10 |
| C=Cc1cc(C(=O)NS(=O)(=O)c2nc(C(C)(C)C)ccc2OC)ccc1Cn1cccn1 [Example C16, 4-((1H-pyrazol-1-yl)methyl)-N-((6-(tert-butyl)-3-methoxypyridin-2-yl)sulfonyl)-3-vinylbenzamide] | ≤ 5 | ≤ 5 | ≤ 10 |
| COc1ccc(N2CCC(OC)CC2)cc1S(=O)(=O)NC(=O)c1ccc(Cn2cccn2)c(C2CC2)c1 [Example C17, 4-((1H-pyrazol-1-yl)methyl)-3-cyclopropyl-N-((2-methoxy-5-(4-methoxypiperidin-1-yl)phenyl)sulfonyl)benzamide] | ≤ 5 | ≤ 5 | 10 to 100 |
| COc1ccc(C(C)(C)C)cc1S(=O)(=O)NC(=O)c1ccc(Cn2cccn2)c(C2CCO2)c1 (stereo not drawn) [Example C18, 4-((1H-pyrazol-1-yl)methyl)-N-((5-(tert-butyl)-2-methoxyphenyl)sulfonyl)-3-(oxetan-2-yl)benzamide] | ≤ 5 | ≤ 5 | ≤ 10 |
| COc1ccc(C(C)(C)C)nc1S(=O)(=O)NC(=O)c1ccc(Cn2cccn2)c(C2COC2)c1 [Example C19, 4-((1H-pyrazol-1-yl)methyl)-N-((6-(tert-butyl)-3-methoxypyridin-2-yl)sulfonyl)-3-(oxetan-3-yl)benzamid] | ≤ 5 | ≤ 5 | 10 to 100 |
| COc1ccc(C(C)(C)C)nc1S(=O)(=O)NC(=O)c1ccc(Cn2cccn2)c(N2CCC2)c1 [Example C20, 4-((1H-pyrazol-1-yl)methyl)-3-(azetidin-1-yl)-N-((6-(tert-butyl)-3-methoxypyridin-2-yl)sulfonyl)benzamide] | ≤ 5 | ≤ 5 | ≤ 10 |
| COc1ccc(C(C)(C)C)nc1S(=O)(=O)NC(=O)c1ccc(Cn2cccn2)c(C2CCC2)c1 [Example C21, 4-((1H-pyrazol-1-yl)methyl)-N-((6-(tert-butyl)-3-methoxypyridin-2-yl)sulfonyl)-3-cyclobutyl-benzamide] | ≤ 5 | ≤ 5 | ≤ 10 |
| COc1ccc(C(C)(C)C)nc1S(=O)(=O)NC(=O)c1ccc(Cn2cccn2)c(Cl)c1 [Example C22, 4-((1H-pyrazol-1-yl)methyl)-N-((6-(tert-butyl)-3-methoxypyridin-2-yl)sulfonyl)-3-chlorobenzamide] | ≤ 5 | ≤ 5 | ≤ 10 |
| CCc1cc(C(=O)NS(=O)(=O)c2nc(C(C)(C)C)ccc2OC)ccc1Cn1cccn1 [Example C23, 4-((1H-pyrazol-1-yl)methyl)-N-((6-(tert-butyl)-3-methoxypyridin-2-yl)sulfonyl)-3-ethylbenzamide] | ≤ 5 | ≤ 5 | ≤ 10 |
